SMILES strings stand for the structures.

This test has as its system HIV-IIIb. The test is described as follows: Antiviral assay in MT4 cells. The format is cell-based. The settings on record: Human immunodeficiency virus 1, MT4, 120 h; MT-4 cells mixed with HIV-IIIb at m.o.i. 0.003; 5 days at 37° C.; CellTiter-Glo luminescence; 50% decrease in signal, a measure of HIV-1 replication. In outline: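 Compound, tested at ten 3-fold dilutions in quadruplicate in 10% FBS medium, received MT-4 cells pre-mixed 1 hour with HIV-IIIb (m.o.i. 0.003). Protection was read as luminescent cell viability (CellTiter-Glo) after 5 days' culture at 37° C.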

As to `Cn1nc(NS(C)(=O)=O)c2cccc(-c3cc4sc(O)nc4nc3[C@H](Cc3cc(F)cc(F)c3)NC(=O)Cn3nc(C(F)(F)F)c4c3C(F)(F)[C@@H]3C[C@H]43)c21` [Example 113, 2-((3bS,4aR)-5,5-difluoro-3-(trifluoromethyl)-3b,4,4a,5-tetrahydro-1H-cyclopropa[3,4]cyclopenta[1,2-c]pyrazol-1-yl)-N—((S)-2-(3,5-difluorophenyl)-1-(2-hydroxy-6-(1-methyl-3-(methylsulfonamido)-1H-indazol-7-yl)thiazolo[4,5-b]pyridin-5-yl)ethyl)acetamide], a half-maximal effect (EC50) was put at 0.0081 µM.
Compound `NC(=O)c1cc(-c2cc3nc(O)oc3nc2[C@H](Cc2cc(F)cc(F)c2)NC(=O)Cn2nc(C(F)(F)F)c3c2C(F)(F)[C@@H]2C[C@H]32)ccc1F` [Example 114, 5-(5-((S)-1-(2-((3bS,4aR)-5,5-difluoro-3-(trifluoromethyl)-3b,4,4a,5-tetrahydro-1H-cyclopropa[3,4]cyclopenta[1,2-c]pyrazol-1-yl)acetamido)-2-(3,5-difluorophenyl)ethyl)-2-hydroxyoxazolo[5,4-b]pyridin-6-yl)-2-fluorobenzamide] came in with an EC50 of 0.589 µM.
`Cn1nc(N)c2c(Cl)ccc(-c3cc4sc(NCC(C)(C)O)nc4nc3[C@H](Cc3cc(F)cc(F)c3)NC(=O)Cn3nc(C(F)(F)F)c4c3C(F)(F)[C@@H]3C[C@H]43)c21` [Example 115, N—((S)-1-(6-(3-amino-4-chloro-1-methyl-1H-indazol-7-yl)-2-((2-hydroxy-2-methylpropyl)amino)thiazolo[4,5-b]pyridin-5-yl)-2-(3,5-difluorophenyl)ethyl)-2-((3bS,4aR)-5,5-difluoro-3-(trifluoromethyl)-3b,4,4a,5-tetrahydro-1H-cyclopropa[3,4]cyclopenta[1,2-c]pyrazol-1-yl)acetamide]: a half-maximal response (EC50) required 0.007 µM.
`Cn1nc(N)c2c(Cl)ccc(-c3cc4sc(NCC(C)(C)O)nc4nc3[C@H](Cc3cc(F)cc(F)c3)NC(=O)Cn3nc(C(F)F)c4c3C(F)(F)[C@@H]3C[C@H]43)c21` [Example 116, N—((S)-1-(6-(3-amino-4-chloro-1-methyl-1H-indazol-7-yl)-2-((2-hydroxy-2-methylpropyl)amino)thiazolo[4,5-b]pyridin-5-yl)-2-(3,5-difluorophenyl)ethyl)-2-((3bS,4aR)-3-(difluoromethyl)-5,5-difluoro-3b,4,4a,5-tetrahydro-1H-cyclopropa[3,4]cyclopenta[1,2-c]pyrazol-1-yl)acetamide] came in with an EC50 of 0.0035 µM.
As for `NC(=O)c1cc(-c2nc3nc(C(Cc4cc(F)cc(F)c4)NC(=O)Cn4nc(C(F)(F)F)c5c4C(F)(F)[C@@H]4C[C@H]54)c(-c4ccc(F)c(C(N)=O)c4)cc3s2)ccc1F` (stereo partly drawn) [Example 117, 5,5′-(5-(1-(2-((3bS,4aR)-5,5-difluoro-3-(trifluoromethyl)-3b,4,4a,5-tetrahydro-1H-cyclopropa[3,4]cyclopenta[1,2-c]pyrazol-1-yl)acetamido)-2-(3,5-difluorophenyl)ethyl)thiazolo[4,5-b]pyridine-2,6-diyl)bis(2-fluorobenzamide)], the figure is 0.0935 µM.
In turn, `NC(=O)c1cc(-c2cc3sc(-c4ccccc4)nc3nc2[C@H](Cc2cc(F)cc(F)c2)NC(=O)Cn2nc(C(F)(F)F)c3c2C(F)(F)[C@@H]2C[C@H]32)ccc1F` [Example 118, 5-(5-((S)-1-(2-((3bS,4aR)-5,5-difluoro-3-(trifluoromethyl)-3b,4,4a,5-tetrahydro-1H-cyclopropa[3,4]cyclopenta[1,2-c]pyrazol-1-yl)acetamido)-2-(3,5-difluorophenyl)ethyl)-2-phenylthiazolo[4,5-b]pyridin-6-yl)-2-fluorobenzamide] gave an EC50 of 0.303 µM.
`NC(=O)c1nc2nc(C(Cc3cc(F)cc(F)c3)NC(=O)Cn3nc(C(F)(F)F)c4c3C(F)(F)[C@@H]3C[C@H]43)c(-c3ccc(F)c(C(N)=O)c3)cc2s1` (stereo partly drawn) [Example 119, 6-(3-carbamoyl-4-fluorophenyl)-5-(1-(2-((3bS,4aR)-5,5-difluoro-3-(trifluoromethyl)-3b,4,4a,5-tetrahydro-TH-cyclopropa[3,4]cyclopenta[1,2-c]pyrazol-1-yl)acetamido)-2-(3,5-difluorophenyl)ethyl)thiazolo[4,5-b]pyridine-2-carboxamide] displayed an EC50 of 0.072 µM.
For `Cc1c(-c2cc3[nH]c(-c4ccccc4)cc3nc2[C@H](Cc2cc(F)cc(F)c2)NC(=O)Cn2nc(C(F)(F)F)c3c2C(F)(F)[C@@H]2C[C@H]32)ccc2n[nH]c(=O)n12` [Example 120, 2-((3bS,4aR)-5,5-difluoro-3-(trifluoromethyl)-3b,4,4a,5-tetrahydro-1H-cyclopropa[3,4]cyclopenta[1,2-c]pyrazol-1-yl)-N—((S)-2-(3,5-difluorophenyl)-1-(6-(5-methyl-3-oxo-2,3-dihydro-[1,2,4]triazolo[4,3-a]pyridin-6-yl)-2-phenyl-1H-pyrrolo[3,2-b]pyridin-5-yl)ethyl)acetamide], it took 0.294 µM to reach a half-maximal effect (EC50).
`Cn1nc(NS(C)(=O)=O)c2cccc(-c3cc4[nH]c(-c5ccccc5)cc4nc3[C@H](Cc3cc(F)cc(F)c3)NC(=O)Cn3nc(C(F)(F)F)c4c3C(F)(F)[C@@H]3C[C@H]43)c21` [Example 121, 2-((3bS,4aR)-5,5-difluoro-3-(trifluoromethyl)-3b,4,4a,5-tetrahydro-1H-cyclopropa[3,4]cyclopenta[1,2-c]pyrazol-1-yl)-N—((S)-2-(3,5-difluorophenyl)-1-(6-(1-methyl-3-(methylsulfonamido)-1H-indazol-7-yl)-2-phenyl-1H-pyrrolo[3,2-b]pyridin-5-yl)ethyl)acetamide]: the concentration giving a half-maximal response (EC50) came out at 0.0796 µM.
Take `Cn1nc(NS(C)(=O)=O)c2cccc(-c3cc4[nH]c(-c5ccccc5)cc4nc3[C@H](Cc3cc(F)cc(F)c3)NC(=O)Cn3nc(C(F)F)c4c3C3CC3CC4)c21` (stereo partly drawn) [Example 122, 2-(3-(difluoromethyl)-5,5a,6,6a-tetrahydrocyclopropa[g]indazol-1(4H)-yl)-N—((S)-2-(3,5-difluorophenyl)-1-(6-(1-methyl-3-(methylsulfonamido)-1H-indazol-7-yl)-2-phenyl-1H-pyrrolo[3,2-b]pyridin-5-yl)ethyl)acetamide]: the EC50 is 0.0123 µM.
In turn, `Cn1cc(-c2nc3nc(C(Cc4cc(F)cc(F)c4)NC(=O)Cn4nc(C(F)(F)F)c5c4C(F)(F)[C@@H]4C[C@H]54)c(-c4cccc5c(NS(C)(=O)=O)nn(C)c45)cc3s2)cn1` (stereo partly drawn) [Example 123, 2-((3bS,4aR)-5,5-difluoro-3-(trifluoromethyl)-3b,4,4a,5-tetrahydro-1H-cyclopropa[3,4]cyclopenta[1,2-c]pyrazol-1-yl)-N-(2-(3,5-difluorophenyl)-1-(2-(1-methyl-1H-pyrazol-4-yl)-6-(1-methyl-3-(methylsulfonamido)-1H-indazol-7-yl)thiazolo[4,5-b]pyridin-5-yl)ethyl)acetamide] returned an EC50 of 0.0086 µM.
Compound `Cn1nc(NS(C)(=O)=O)c2cccc(-c3cc4sc(N5CCC(C)(O)CC5)nc4nc3C(Cc3cc(F)cc(F)c3)NC(=O)Cn3nc(C(F)(F)F)c4c3C(F)(F)[C@@H]3C[C@H]43)c21` (stereo partly drawn) [Example 124, 2-((3bS,4aR)-5,5-difluoro-3-(trifluoromethyl)-3b,4,4a,5-tetrahydro-1H-cyclopropa[3,4]cyclopenta[1,2-c]pyrazol-1-yl)-N-(2-(3,5-difluorophenyl)-1-(2-(4-hydroxy-4-methylpiperidin-1-yl)-6-(1-methyl-3-(methylsulfonamido)-1H-indazol-7-yl)thiazolo[4,5-b]pyridin-5-yl)ethyl)acetamide] yielded an EC50 of 0.0136 µM.
